Key:
[1] = test system: Fusarium oxysporum f. sp. tulipae CBS116591 and Fusarium oxysporum f. sp. tulipae Tu467; test: Tulip bulb treatment as in Example 1, infected bulbs scored and grouped by ANOVA; type: in vivo; conditions: control 90.0, LSD at P=5% 6.50
Procedure: (§1) In this example tulip bulbs of the variety Prominence were treated with a 1:1 mixture of spores of the pathogenic moulds Fusarium oxysporum f. sp. tulipae CBS116591 and Fusarium oxysporum f. sp. tulipae Tu467 by submersing the bulbs for 30 minutes in a suspension containing 50.000-100.000 spores per ml. The mould spores were obtained using well-known methods. It should be noticed that in this challenge test the effect of the compositions was tested under very severe circumstances, because a very high number of mould spores was used. In real practise, the disease pressure will be less severe.
(§2) After the inoculation with mould spores the bulbs were dried following well-known methods. 40-60 minutes after drying the bulbs were treated with the different compositions described in Table 1. The compositions were prepared according to the instructions described on the label. All compositions contained 0.1% (v/v) of the sticking agent Prolong® (Holland Fyto, The Netherlands) and the surfactant Zipper® (Asepta BV, The Netherlands) in a concentration of 1 ml/l. Subsequently, the bulbs were planted in soil in pots (10 bulbs per pot) and incubated under well known standard conditions for growing tulips.
This example describes the results of an experiment performed as described in Example 1. Just as in the experiment performed in Example 1, the pH of all solutions was adjusted to 5.7 with KOH or K2CO3 which results in a mixture of two phosphites, KH2PO3 and K2HPO3.
The results obtained with a composition comprising 25% of a standard cocktail which is generally applied in practice are included. This standard cocktail contains the commercial products 0.5% (v/v) Captan (546 gram active ingredient per liter), 0.3% (v/v) Prochloraz (450 g/l) and 1% (v/v) Topsin M (500 g/l). The number of infected bulbs was scored and grouped using the well-known statistical method ANOVA (LSD at P=5% was 6.50).

most fungi = conditions: for most fungi; cited from earlier work
Fusarium oxysporum = conditions: bulbs dipped two hours at 43.5° C.; Dekker and Langerak (1979); cited from earlier work
[2] = test system: Fusarium oxysporum f. sp. tulipae CBS 116593; test: Wounded tulip bulbs infected after harvest, treated and stored 15 days at 24° C., visual mould growth; type: in vivo; conditions: 15 days storage; for Amount of non-infected bulbs (in %): control 40; for Amount of bulbs with visible moulds (in %): control 60
Text: In this experiment tulip bulbs of the variety Prominence were infected just after harvesting with a spore suspension of Fusarium oxysporum f. sp. tulipae CBS 116593 and treated with the antifungal compositions presented in Table 3. This time, the bulbs were not planted but stored. In this experiment the efficacy of the antifungal composition during the storage of the bulbs was studied.
After harvesting, the outer dry skin of the bulbs was removed and the bulbs were disinfected by applying a treatment with 4% (v/v) Glorix® for 5 minutes. The bulbs were dried and a lesion of a few millimeters was made in the surface of the bulb using a knife. The wound was infected with 15 μl of a spore suspension of Fusarium oxysporum f. sp. tulipae; this way approximately 10.000 mould spores infected the wound after which the bulbs were treated with 30 μl of the compositions described in Table 3. Twenty bulbs were treated per composition. In one experiment the treatment with the antifungal composition was applied 12 hours after infection. The bulbs were incubated for 15 days at a temperature of 24° C. after which the bulbs were examined visually on mould growth.

[3] = cited from earlier work
[4] = test system: Fusarium oxysporum f. sp. tulipae CBS116591 and Fusarium oxysporum f. sp. tulipae Tu467; test: Tulip bulbs (Prominence) inoculated with mould spores, treated, planted in pots; infection scored at full bloom; type: in vivo; conditions: for % of bulbs infected: average of 60 bulbs, control 100
Procedure: as §1, §2
The bulbs were examined for mould infection when the flowers were at full bloom. For each incubation the average observation of 60 bulbs is given. Statistical analysis was performed after an ASIN transformation. The LSD at P=5% was 6.50.

Helminthosporium solani = test: Seed-potatoes naturally contaminated with silver scurf, sprayed and stored; mould growth and sporulation; type: in vivo
Procedure: Freshly harvested seed-potatoes naturally contaminated with silver scurf were selected for this experiment. The seed-potatoes were treated with the compositions described in Table 4. All compositions contained 0.1% (v/v) of the sticking agent Prolong® (Holland Fyto, The Netherlands) and the surfactant Zipper® (Asepta BV, The Netherlands) in a concentration of 1 ml/l. Said compositions were sprayed on the seed-potatoes using well-known methods after which the seed-potatoes were stored under standard conditions. For each composition 9×25 seed-potatoes were used; of each composition one triple set of seed-potatoes (3×25) was judged visually on mould growth after 1 month of storage (t=1), after 3 months of storage (t=3) and after 6 months of storage (t=6). The mould growth is reported as increase of surface covered with moulds (in percentage). In addition the sporulation of the moulds on the seed-potatoes was examined and scored on a scale from 0 to 4 (0=no sporulation; 4=high sporulation).

Fusarium mould = conditions: Example 11 of WO 2004/067699; cited from earlier work

## C[C@@H]1C/C=C/C=C/C=C/C=C/[C@H](O[C@@H]2O[C@H](C)[C@@H](O)[C@H](N)[C@@H]2O)C[C@@H]2O[C@](O)(C[C@@H](O)C[C@H]3O[C@@H]3/C=C/C(=O)O1)C[C@H](O)[C@H]2C(=O)O [natamycin]
[1]; 200 ppm natamycin
  Score (mould infection of tulip bulbs): 76.0
[1]; 500 ppm natamycin
  Score (mould infection of tulip bulbs): 75.0
Most fungi
  MIC (Minimal Inhibitory Concentration): less than 10 ppm
Fusarium oxysporum
  preventing the spread of Fusarium oxysporum in the water baths (in words): as effective as organic mercury or formalin
[2]; 500 ppm natamycin
  Amount of non-infected bulbs (in %): 60%
  Amount of bulbs with visible moulds (in %): 40%
[3]
  solubility in water: 30-50 ppm
[4]; natamycin 0.2 g/l
  % of bulbs infected: 88%
[4]; natamycin 0.5 g/l
  % of bulbs infected: 90%
Helminthosporium solani; natamycin 2000 ppm, t = 1 (1 month of storage), water control 3.8
  Increase in percentage of the surface of seed-potatoes covered with mould: 1.5%
Helminthosporium solani; natamycin 2000 ppm, t = 1, scale 0 to 4, water control 2.7
  Sporulation of silver scurf moulds on seed potatoes: 0.8
Helminthosporium solani; natamycin 2000 ppm, t = 3 (3 months of storage), water control 3.4
  Increase in percentage of the surface of seed-potatoes covered with mould: 3.0%
Helminthosporium solani; natamycin 2000 ppm, t = 3, scale 0 to 4, water control 1.8
  Sporulation of silver scurf moulds on seed potatoes: 1.1
Helminthosporium solani; natamycin 2000 ppm, t = 6 (6 months of storage), water control 7.8
  Increase in percentage of the surface of seed-potatoes covered with mould: 3.8%
Helminthosporium solani; natamycin 2000 ppm, t = 6, scale 0 to 4, water control 2.4
  Sporulation of silver scurf moulds on seed potatoes: 1.8
Helminthosporium solani; natamycin 5000 ppm, t = 1 (1 month of storage), water control 3.8
  Increase in percentage of the surface of seed-potatoes covered with mould: 0.8%
Helminthosporium solani; natamycin 5000 ppm, t = 1, scale 0 to 4, water control 2.7
  Sporulation of silver scurf moulds on seed potatoes: 0.6
Helminthosporium solani; natamycin 5000 ppm, t = 3 (3 months of storage), water control 3.4
  Increase in percentage of the surface of seed-potatoes covered with mould: 2.6%
Helminthosporium solani; natamycin 5000 ppm, t = 3, scale 0 to 4, water control 1.8
  Sporulation of silver scurf moulds on seed potatoes: 1.2
Helminthosporium solani; natamycin 5000 ppm, t = 6 (6 months of storage), water control 7.8
  Increase in percentage of the surface of seed-potatoes covered with mould: 3.5%
Helminthosporium solani; natamycin 5000 ppm, t = 6, scale 0 to 4, water control 2.4
  Sporulation of silver scurf moulds on seed potatoes: 0.7
Fusarium mould
  yellow mould spots on leaves growing from treated tulip bulbs (in words): some yellow spots

## copper lignosulphonate
[4]; conclusion from Table 1
  effect on mould infection of tulip bulbs (in words): did not lead to reduction of moulds
[4]; copper lignosulphonate 2 g/l
  % of bulbs infected: 97%

## potassium phosphite
[1]; 120 mM phosphite, pH 5.7
  Score (mould infection of tulip bulbs): 72.9
[2]; 120 mM phosphite
  Amount of non-infected bulbs (in %): 50%
  Amount of bulbs with visible moulds (in %): 50%
[4]; potassium phosphite 20 g/l
  % of bulbs infected: 87%
Helminthosporium solani; phosphite 120 mM, t = 1 (1 month of storage), water control 3.8
  Increase in percentage of the surface of seed-potatoes covered with mould: 2.5%
Helminthosporium solani; phosphite 120 mM, t = 1, scale 0 to 4 (0=no sporulation; 4=high sporulation), water control 2.7
  Sporulation of silver scurf moulds on seed potatoes: 1.3
Helminthosporium solani; phosphite 120 mM, t = 3 (3 months of storage), water control 3.4
  Increase in percentage of the surface of seed-potatoes covered with mould: 4.0%
Helminthosporium solani; phosphite 120 mM, t = 3, scale 0 to 4, water control 1.8
  Sporulation of silver scurf moulds on seed potatoes: 1.0
Helminthosporium solani; phosphite 120 mM, t = 6 (6 months of storage), water control 7.8
  Increase in percentage of the surface of seed-potatoes covered with mould: 6.9%
Helminthosporium solani; phosphite 120 mM, t = 6, scale 0 to 4, water control 2.4
  Sporulation of silver scurf moulds on seed potatoes: 1.3

Source: US8524635B2, “Antifungal composition” (DSM IP Assets B.V., priority 2006, dated 2013)
